Reference: PMC11761228, “Cinnamic Acid Compounds (p-Coumaric, Ferulic, and p-Methoxycinnamic Acid) as Effective Antibacterial Agents Against Colistin-Resistant Acinetobacter baumannii” (Antibiotics, 2025)
≈ marks a conversion by molar mass, not a printed value. Entries after “also recorded” stand apart in the source; their conditions may differ. Where two headings read alike, the source gives them in different places.

Tests used:
[1] = tested on: Vero cells; experiment: CCK-8 cell viability assay; assay type: cell-based, African green monkey; conditions: 24 h; for Cytotoxicity (doses with cytotoxic effects): 0.78125–200 μg/mL
Description: 293T [HEK-293] (ATCC® CRL-1573), HUVEC (ATCC CRL-1730 ™, human umbilical vein endothelial cells) and Vero (ATCC® CCL-81™, African green monkey kidney epithelial cells) cells were used in this study. Cells were cultured in RPMI-1640 medium supplemented with 10% fetal bovine serum, 0.1 mM non-essential amino acids, […], 2 mM L-glutamine, and 10 μg/mL gentamicin in a humidified atmosphere of 5% CO2, 95% air at 37 °C. After growing to approximately 80% confluence, the cells were detached with 0.25% (w/v) trypsin-EDTA and then subcultured. The cells were stored in a deep freezer at −80 °C in a solution prepared with 95% medium and 5% DMSO.
Cell viability was assessed according to the manufacturer’s protocol using a Cell Counting Kit-8 (CCK-8) (KTA1020, Abbkine, Atlanta, GA, USA). The assay is based on the reduction of 2-(2-methoxy-4-nitrophenyl)-3-(4-nitrophenyl)-5-(2,4-disulfophenyl)-2H-tetrazolium monosodium salt (WST-8) by cellular mitochondrial dehydrogenase. Cells were seeded in 96-well plates at a final concentration of 5 × 10^3 cells/well in 100 μL complete culture medium and were allowed to attach for 24 h. […] Immediately after the treatment, cell viability in a single column was determined and recorded as time zero (T0). The plain medium with 1% FBS was used as a negative control, whereas ethanol was used as solvent control. Each treatment was performed in four well replicates. At the end of the incubation, the medium was gently aspirated to terminate the experiment, a total volume of 10 μL (5 mg/mL) of CCK-8 solution was added to each well and further incubated under the same conditions for 4 h. The absorbances at 450 nm were measured in a microplate reader (Thermo Labsystem, Waltham, MA, USA), using wells without cells as background. The sample readings were calculated by subtracting the average of background absorbances. The half-maximal inhibitory concentration (IC50) of each extract was derived by a nonlinear regression model (curve-fit) based on a sigmoidal dose response curve (variable slope) and was computed using Graph-Pad Prism, version 4.00 (Graph-Pad Software, San Diego, CA, USA). Cell viability was calculated using the following formula: Cell viability (%) = (ODtreatment − ODblank)/(ODcontrol − ODblank) × 100% [78].

[2] = tested on: COLR-Ab4 isolate; experiment: Scanning electron microscopy of cell morphology; assay type: cell-based, Acinetobacter baumannii; conditions: COLR-Ab4, MIC concentrations, 3 h
Description: To examine the potential impact of the antimicrobial agents on the cell morphology of the COLR-Ab4 isolate, SEM studies were carried out according to the method Bendali et al. (2008), with minor modifications. […] Bacteria incubated without treatment with agents were used as controls. After incubation, the suspension was centrifuged for 10 min at 4000× g. The bacteria were washed twice with 0.1 M phosphate-buffered solution (PBS, pH 7.0). The pellet was fixed in 2.5% glutaraldehyde solution and kept for at 4 °C for 2 h. After washing the bacteria again twice with PBS, the sample was fixed in 1% osmium tetroxide solution for 1 h. Then, the samples were dehydrated through suspension in increasing concentrations of ethanol (30, 50, 70, 80, 90, and 100%) for 10 min each. The ethanol was then replaced by 100% acetone. Finally, the samples were fixed on an SEM support, coated with gold/palladium using sputtering in a vacuum, and examined using SEM (Zeiss LEO 1430, Cambridge, UK).

[3] = tested on: biofilm production of A. baumannii isolates; design: method as in ref 51 (Mumtaz et al., 2023); conditions: ref 51 (Mumtaz et al., 2023); cited from earlier work
[4] = tested on: Vero cells; conditions: cited from earlier work; for IC50 (cytotoxic effects): after 48 h, ref 70 (Sevimli-Gur and Yesil-Celiktas); for IC50: read-out: IC50 (cytotoxicity), 24 h of incubation, 5 mM maximum tested dose, ref 69 (Saenglee et al.)
[5] = tested on: biofilm formation of COLR-Ab isolates; experiment: Antibiofilm activity, microtiter plate-based crystal violet technique; assay type: cell-based, Acinetobacter baumannii; conditions: for Reduction of biofilm formation: dose range 512–32 μg/mL
Description: Following the incubation period, the microtiter plates were gently washed three times with PBS. Subsequently, 200 µL of methanol (99%) was added to each well and left for 15 min. The methanol was then removed from the wells and the plate was left to dry for approximately 30 min, thus completing the fixation process. Then, 200 µL of 0.1% CV solution was added to each well and incubated for 20 min at room temperature. The plates were washed three times with PBS in order to remove the excess stain, and then 150 μL of 95% ethanol was added to the wells and incubated for 20 min. The optical density of the CV-stained biofilm was measured at a wavelength of 575 nm using a Thermo Labsystem Multiscan Spectrum microtiter plate reader (Thermolabsystem, Chantilly, VA, USA). Each experiment was conducted in triplicate.
In order to evaluate the antibiofilm activity of COL, p-CA, FA, and p-MCA, a 96-well microtiter plate-based CV test was carried out, with minor modifications to the methods previously described by Kırmusaoglu (2019) and Haney et al. (2021). Briefly, bacteria were inoculated into MHB medium containing 0.2% glucose and incubated at 37 °C for 16–20 h. The bacterial suspension, adjusted to 0.5 McFarland using the same medium, was prepared to a final concentration of 5 × 10^5 CFU/mL and inoculated into 96-well flat-bottom microtitre plates. […] Wells containing only medium were used as negative controls (MHB), and wells containing only medium and bacteria were used as growth controls. The plates were then incubated overnight at 35 ± 2 °C in a normal atmosphere. Following incubation, CV staining procedures were carried out in a similar manner to Section 4.4.
The antibiofilm index was calculated using the following formula:% Biofilm Mass = (100 × Sample OD575/Growth Control OD575)

[6] = tested on: A. baumannii isolates; conditions: various A. baumannii isolates; ref 28 (Ibitoye and Ajiboye, 2019); cited from earlier work
[7] = tested on: 293T cells; conditions: 24 h, tested range 0.78–200 μg/mL
[8] = tested on: Bacillus subtilis; conditions: cited from earlier work
[9] = tested on: Salmonella typhimurium; design: method as in ref 35 (Lou et al., 2012); conditions: ref 35 (Lou et al., 2012); cited from earlier work
[10] = tested on: E. coli; conditions: cited from earlier work
[11] = tested on: S. aureus; conditions: cited from earlier work
[12] = tested on: Micrococcus luteus; design: method as in ref 29 (Nakazono et al., 2006); conditions: ref 29 (Nakazono et al., 2006); cited from earlier work

In the case of `COc1cc(/C=C/C(=O)O)ccc1O` [FA, ferulic acid], the “Cytotoxicity (doses with cytotoxic effects)” value (“Cytotoxicity” below) [1] is listed as “no cytotoxic effects; also recorded: did not exhibit any cytotoxic effect”, the “Cell morphology by SEM” value [2] is listed as “certain morphological changes in bacterial cells” and the “Inhibition of biofilm production” value [3] is listed as 49–69%. The “IC50 (cytotoxic effects)” value [4] was 134 ± 0.8 µg/mL (≈ 690 µM), the IC50 [4] was greater than 5 mM and the “Inhibition of biofilm formation” value ([5]; dose range 2048–128 μg/mL, COLR-Ab1, 3, 4, 5) was 28.1–77%. For the same compound, the “Combination effect with quinolone-based antibiotics in words” value [6] was “synergistic effect”.
For `O=C(O)/C=C/c1ccc(O)cc1` [p-CA, p-coumaric acid], the IC50 value [7] was “indeterminate”, the “Cytotoxicity” value [1] was “no cytotoxic effects; also recorded: did not exhibit cytotoxic effects” and the IC50 value ([1]; tested range 0.78–200 μg/mL) was “indeterminate”. For the same compound, the MIC ([8]; ref 35 (Lou et al., 2012)) was 20 µg/mL (≈ 122 µM), the “Cell morphology by SEM” value [2] was “certain morphological changes in bacterial cells” and the MIC [9] was 20 µg/mL (≈ 122 µM). The “IC50 (cytotoxic effects)” value [4] was 163 ± 0.3 µg/mL (≈ 993 µM), the IC50 [4] was greater than 5 mM and the “Increase in biofilm formation” value ([5]; COLR-Ab3, doses of 16–8 μg/mL) was 20%. For the same compound, the “Reduction of biofilm formation” value ([5]; COLR-Ab1, 3, 4, 5) was 37.3–77.5%, the MIC ([10]; ref 35 (Lou et al., 2012)) was 20 µg/mL (≈ 122 µM) and the MIC ([11]; ref 35 (Lou et al., 2012)) was 80 µg/mL (≈ 487 µM).
In the case of `COc1ccc(C=CC(=O)O)cc1` [p-MCA, p-methoxycinnamic acid], the “Cytotoxicity” value [1] is given as “only 200 μg/mL p-MCA induced cytotoxicity; also recorded: only at 200 μg/mL (p < 0.05)”, the MIC [8] is given as 40 µg/mL (≈ 224 µM) and the “Cell morphology by SEM” value [2] is given as “certain morphological changes in bacterial cells”. For the same compound, the “Reduction of biofilm formation” value ([5]; COLR-Ab1, 3, 4, 5) was 40.3–77.2%, the MIC [10] was 30 µg/mL (≈ 168 µM) and the MIC ([10]; ref 29 (Nakazono et al., 2006)) was 50 µg/mL (≈ 281 µM). The MIC [11] was 40 µg/mL (≈ 224 µM), the MIC ([11]; ref 29 (Nakazono et al., 2006)) was 60 µg/mL (≈ 337 µM) and the MIC [12] was 80 µg/mL (≈ 449 µM).
